Source: the supplement of paper PMC7840683
Structures can show the parent of a compound that is named as a salt. ± gives the standard deviation of the averaged measurements.

System: HepaRG
Test: LDH release cytotoxicity, % of total lysis control; higher = more cytotoxic
Settings: 48 h
How it was run: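 Eight-point half-log series of test chemicals, the highest at 100 µM, were given in duplicate for 48 h to single-lot HepaRG cells on collagen I-coated 96-well plates in serum-free induction medium with 0.5% DMSO. A Tecan Safire read resorufin fluorescence from CytoTox-ONE as a measure of LDH in 50 µL spent medium, with 0.1% Triton X in total lysis wells. Percent cytotoxicity was normalized to on-plate vehicle and total lysis controls and averaged over the duplicates.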

SMILES | LDH release cytotoxicity (0.03162 µM) [%] | LDH release cytotoxicity (0.1 µM) [%] | LDH release cytotoxicity (0.3162278 µM) [%] | LDH release cytotoxicity (1 µM) [%] | LDH release cytotoxicity (3.16228 µM) [%] | LDH release cytotoxicity (10 µM) [%] | LDH release cytotoxicity (31.6228 µM) [%] | LDH release cytotoxicity (100 µM) [%] | further results
Sc1nc2ccccc2s1 [2-Mercaptobenzothiazole] | -0.515 ± 0.59 | 0.0327 ± 0.27 | -0.565 ± 1.2 | -0.708 ± 0.47 | 0.4 ± 0.3 | 0.658 ± 0.27 | 1.05 ± 0.11 | 3.61 ± 0.18 | –
COc1ccc(C)cc1N [2-Methoxy-5-methylaniline] | -1.46 ± 2 | -3.72 ± 0.18 | -3.46 ± 0.056 | -4.05 ± 0.41 | -3.672 ± 0.029 | -4.54 ± 1.1 | -2.55 ± 0.51 | 14.6 ± 1.5 | –
COCCO [2-Methoxyethanol] | -2.71 ± 0.16 | -2.42 ± 0.11 | -1.84 ± 0.67 | -2.08 | -2.13 ± 0.46 | -1.562 ± 0.005 | 0.278 ± 0.11 | 2.52 ± 0.4 | –
CC(O)CC(C)(C)O (stereo not given) [2-Methyl-2,4-pentanediol] | -1.84 ± 0.52 | -2.18 ± 0.3 | -2.81 ± 0.68 | -2.8 ± 1.5 | -2.62 ± 0.7 | -2.46 ± 1 | -2.69 ± 1.3 | -0.649 ± 1.4 | –
Cc1ccccc1N [2-Methylaniline] | -1.2 ± 0.49 | -0.736 ± 0.52 | -0.698 ± 0.12 | -0.759 ± 0.47 | -1.37 ± 0.23 | -0.264 ± 0.12 | -0.213 ± 0.19 | 0.285 ± 0.61 | –
Oc1ccc2ccccc2c1 [2-Naphthalenol] | -0.471 ± 0.51 | -0.55 ± 0.25 | -0.787 ± 0.15 | -0.57 ± 0.2 | -0.679 ± 0.39 | -0.106 ± 0.093 | 0.851 ± 0.3 | 13.8 ± 0.73 | –
Nc1ccc2ccccc2c1 [2-Naphthylamine] | -1.06 ± 0.22 | -1.31 ± 0.37 | -0.801 ± 0.7 | -1.43 ± 0.78 | -1.16 ± 0.89 | -0.463 ± 0.054 | 0.128 ± 0.57 | 0.14 ± 0.74 | –
Cc1ccccc1[N+](=O)[O-] [2-Nitrotoluene] | – | – | – | – | – | – | – | – | LDH release cytotoxicity (0.0324133 µM): -0.207 ± 0.0063%; LDH release cytotoxicity (0.1025 µM): -0.999 ± 0.6%; LDH release cytotoxicity (0.324134 µM): -0.895 ± 0.32%; LDH release cytotoxicity (1.025 µM): -1.29 ± 0.7%; LDH release cytotoxicity (3.24133 µM): -0.412 ± 0.16%; LDH release cytotoxicity (10.25 µM): 0.00334 ± 0.67%; LDH release cytotoxicity (32.4133 µM): 0.414 ± 0.41%; LDH release cytotoxicity (102.5 µM): 1.14 ± 0.065%
O=C1OC(=O)C2C3C=CC(C3)C12 (stereo not given) [2-Norbornene-5,6-dicarboxylic anhydride] | -1.12 ± 0.28 | -0.887 ± 0.62 | -1.06 ± 0.25 | -1.3 ± 0.092 | -0.802 ± 0.41 | -1.42 ± 0.42 | -0.266 ± 0.16 | 1.32 ± 0.12 | –
OCCOc1ccccc1 [2-Phenoxyethanol] | -0.138 ± 0.14 | -0.772 ± 0.68 | -1.12 ± 0.39 | -1.13 ± 0.53 | -1.12 ± 0.78 | -1.27 ± 0.29 | -0.22 ± 0.34 | 0.632 ± 1.1 | –
Oc1ccccc1-c1ccccc1 [2-Phenylphenol] | – | – | – | – | – | – | – | – | LDH release cytotoxicity (0.0327296 µM): -1.34 ± 0.032%; LDH release cytotoxicity (0.1035 µM): -1.96 ± 0.059%; LDH release cytotoxicity (0.327296 µM): -0.0202 ± 0.57%; LDH release cytotoxicity (1.035 µM): -0.704 ± 0.57%; LDH release cytotoxicity (3.27296 µM): -1.21 ± 0.68%; LDH release cytotoxicity (10.35 µM): 0.0213 ± 0.73%; LDH release cytotoxicity (32.729574 µM): -0.237 ± 0.41%; LDH release cytotoxicity (103.5 µM): 0.858 ± 0.56%
Cc1ccc(C(C)(C)C)c(O)c1 [2-Tert-Butyl-5-methylphenol] | -2.27 ± 0.2 | -3.53 ± 0.25 | -3.17 ± 1.2 | -3.25 ± 0.28 | -3.05 ± 0.58 | -1.24 ± 0.75 | -1.73 ± 0.49 | 1.45 ± 1.3 | –
CCOCCOCCOCCO [2-[2-(2-Ethoxyethoxy)ethoxy]ethanol] | -2.06 ± 0.3 | -1.83 ± 0.41 | -2.87 ± 0.13 | -2.53 ± 0.46 | -2.5 ± 0.72 | -1.81 ± 0.26 | -1.33 ± 0.37 | 0.397 ± 0.68 | –
CCc1ccc(O)c(C(C)(C)C)c1 [2-tert-Butyl-4-ethylphenol] | -1.09 ± 0.39 | -1.23 ± 0.81 | -1.36 ± 0.88 | -2.09 ± 0.78 | -0.936 ± 0.3 | 0.529 ± 0.44 | -0.602 ± 0.34 | 0.703 ± 0.44 | –
COc1ccc(O)c(C(C)(C)C)c1 [2-tert-Butyl-4-methoxyphenol] | -1.55 ± 0.4 | -1.18 ± 0.12 | 0.0233 ± 0.91 | 0.0291 ± 1.1 | 0.0384 ± 1.3 | 0.94 ± 1.4 | 1.15 ± 1.3 | 2.22 ± 1.8 | –
CC(C)(C)c1ccccc1O [2-tert-Butylphenol] | -1.05 ± 0.97 | -1.24 ± 0.37 | -1.22 ± 0.3 | -1.31 ± 1.3 | -0.599 ± 0.044 | -0.21 ± 0.92 | -0.521 ± 0.091 | 0.121 ± 1 | –
C/C=C/C=C/C(=O)O [2E,4E-Hexadienoic acid] | -0.745 ± 0.091 | -1.89 ± 0.18 | -1.82 ± 0.54 | -1.07 ± 0.45 | -1.03 ± 0.12 | -1.19 ± 0.023 | -0.323 ± 0.42 | 0.653 ± 1.2 | –
Cc1cn(C2CC(N=[N+]=[N-])C(CO)O2)c(=O)nc1O (stereo not given) [3'-Azido-3'-deoxythymidine] | -0.42 ± 0.53 | -0.0584 ± 0.55 | -1.1 ± 0.81 | -0.757 ± 0.25 | -0.57 ± 0.61 | -0.541 ± 0.24 | -0.814 ± 0.1 | -0.709 ± 0.47 | –
CC(C)(c1cc(Br)c(O)c(Br)c1)c1cc(Br)c(O)c(Br)c1 [3,3',5,5'-Tetrabromobisphenol A] | -1.12 ± 0.1 | -1.08 ± 0.92 | -0.948 ± 1.4 | -1.1 ± 0.047 | -0.766 ± 0.24 | -0.155 ± 0.087 | 0.933 ± 0.068 | 3.36 ± 1.1 | –
COc1cc(-c2ccc(N)c(OC)c2)ccc1N [3,3'-Dimethoxybenzidine dihydrochloride] | -1.44 ± 0.28 | -1.17 ± 0.44 | -1.43 ± 0.26 | -2.08 ± 0.059 | -1.15 ± 0.23 | -0.317 ± 0.23 | 0.438 ± 1 | 3.4 ± 0.6 | –
